Data reported in ChEMBL document CHEMBL1158132, “26,27-cyclosterols and other polyoxygenated sterols from a marine sponge Topsentia sp” (2006).
Converted amounts (≈) assume the structure as drawn.

What was measured:
Type in all cases: functional
Settings in all cases: read-out: ED50 (the source's name)
HCT-15 = assay: Cytotoxicity against human HCT-15 cells
SK-OV-3 = assay: Cytotoxicity against human SKOV3 cells
XF498 = assay: Cytotoxicity against human XF498 cells
SK-MEL-2 = assay: Cytotoxicity against human SK-MEL-2 cells
A549 = assay: Cytotoxicity against human A549 cells

Compound	EC50 (HCT-15)	EC50 (SK-OV-3)	EC50 (XF498)	EC50 (SK-MEL-2)	EC50 (A549)
CC(C)=C[C@@H](C)[C@H]1CC[C@@H]2[C@]1(C)CC[C@H]1[C@]23C=C[C@]2(CCCC[C@]12C)OO3	21.4 µg/mL (≈ 57.7 µM)	19.4 µg/mL (≈ 52.4 µM)	> 30 µg/mL	25.9 µg/mL (≈ 69.9 µM)	30 µg/mL (≈ 81 µM)
CC(C)[C@H](C)/C=C/[C@@H](C)[C@H]1CCC2=C3[C@H](O)[C@@H]4O[C@@]45C[C@@H](O)CC[C@]5(C)[C@H]3CC[C@@]21C [TOPSENTISTEROL B5]	18.4 µg/mL (≈ 42.9 µM)	7.9 µg/mL (≈ 18.4 µM)	> 30 µg/mL	5.5 µg/mL (≈ 12.8 µM)	13.9 µg/mL (≈ 32.4 µM)
CO[C@@H]1C=C2[C@@H]3CC[C@H]([C@H](C)/C=C/[C@@H](C)C(C)C)[C@@]3(C)CC[C@]2(O)[C@@]2(C)CC[C@H](O)C[C@]12O [TOPSENTISTEROL C3]	4.3 µg/mL (≈ 9.33 µM)	7.8 µg/mL (≈ 16.9 µM)	4.7 µg/mL (≈ 10.2 µM)	11.5 µg/mL (≈ 25 µM)	5.6 µg/mL (≈ 12.2 µM)
CC(C)[C@@H](C)/C=C/[C@@H](C)[C@H]1CCC2=C3[C@H](O)[C@@H]4O[C@@]45C[C@@H](O)CC[C@]5(C)[C@H]3CC[C@@]21C	17.9 µg/mL (≈ 41.8 µM)	17.9 µg/mL (≈ 41.8 µM)	> 30 µg/mL	> 30 µg/mL	> 30 µg/mL
COc1cccc2c1C(=O)c1c(O)c3c(c(O)c1C2=O)C[C@@](O)(C(=O)CO)C[C@@H]3O[C@H]1C[C@H](N)[C@H](O)[C@H](C)O1 [DOXORUBICIN]	0.13 µg/mL (≈ 0.239 µM)	0.19 µg/mL (≈ 0.35 µM)	0.07 µg/mL (≈ 0.129 µM)	0.08 µg/mL (≈ 0.147 µM)	0.08 µg/mL (≈ 0.147 µM)
CC(C)[C@H](C)/C=C/[C@@H](C)[C@H]1CC[C@H]2C3=C(CC[C@]12C)[C@@]1(C)CC[C@H](O)C[C@@]12O[C@H]2[C@H]3O [TOPSENTISTEROL B4]	14.1 µg/mL (≈ 32.9 µM)	7.8 µg/mL (≈ 18.2 µM)	19 µg/mL (≈ 44.3 µM)	11.3 µg/mL (≈ 26.4 µM)	9.7 µg/mL (≈ 22.6 µM)
CC(C)[C@H](C)/C=C/[C@@H](C)[C@H]1CC[C@H]2C3=C(CC[C@]12C)[C@@]1(C)CC[C@H](O)CC1=CC3=O [TOPSENTISTEROL D3]	33.6 µg/mL (≈ 81.8 µM)	> 30 µg/mL	> 30 µg/mL	24.5 µg/mL (≈ 59.7 µM)	> 30 µg/mL
CC(C)C/C=C/[C@@H](C)[C@H]1CC[C@@H]2[C@]1(C)CC=C1[C@]23C=C[C@]2(CCCC[C@]12C)OO3	4.7 µg/mL (≈ 11.9 µM)	6.3 µg/mL (≈ 15.9 µM)	11.4 µg/mL (≈ 28.7 µM)	5.2 µg/mL (≈ 13.1 µM)	6.3 µg/mL (≈ 15.9 µM)
CCC(C)/C=C/[C@@H](C)[C@H]1CC[C@@H]2[C@]1(C)CC=C1[C@]23C=C[C@]2(CCCC[C@]12C)OO3 (stereo not given in full) [TOPSENTISTEROL A3]	4.2 µg/mL (≈ 10.6 µM)	7.1 µg/mL (≈ 17.9 µM)	6.2 µg/mL (≈ 15.6 µM)	4.6 µg/mL (≈ 11.6 µM)	5.4 µg/mL (≈ 13.6 µM)
C[C@H](CC[C@@H](C)[C@H]1CC[C@H]2C3=CC(=O)[C@@]4(O)C[C@@H](O)CC[C@]4(C)[C@@]3(O)CC[C@]12C)[C@@H]1C[C@H]1C [TOPSENTISTEROL C1]	6.1 µg/mL (≈ 13.3 µM)	4.2 µg/mL (≈ 9.16 µM)	17.7 µg/mL (≈ 38.6 µM)	11.3 µg/mL (≈ 24.6 µM)	7.7 µg/mL (≈ 16.8 µM)
CC(C)C/C=C/[C@@H](C)[C@H]1CC[C@H]2C3=C(CC[C@]12C)[C@@]1(C)CC[C@H](O)CC1=CC3=O	38.4 µg/mL (≈ 96.8 µM)	> 30 µg/mL	> 30 µg/mL	> 30 µg/mL	> 30 µg/mL
CC(C)[C@@H](C)/C=C/[C@@H](C)[C@H]1CC[C@@H]2[C@]1(C)CC[C@H]1[C@]23C=C[C@]2(CCCC[C@]12C)OO3	21.1 µg/mL (≈ 51.1 µM)	17.8 µg/mL (≈ 43.1 µM)	24.7 µg/mL (≈ 59.9 µM)	19.4 µg/mL (≈ 47 µM)	17.5 µg/mL (≈ 42.4 µM)
